Laboratory results taken from patent publication US10906905B2, “Five-membered heteroaryl ring bridged ring derivative, preparation method therefor and medical use thereof” (Jiangsu Hengrui Medicine Co., Ltd., priority 2016, dated 2021).

What was measured:
TGFβRI kinase ALK5 = TGFβRI kinase ALK5 (Homo sapiens (Human), UniProt P36897); assay: Inhibition of TGFβRI kinase ALK5 activity (TGFβRI kinase assay kit, ADP-Glo); assay type: biochemical; conditions: ATP 50 μM; read-out: IC50 of inhibition effect on TGFβRI kinase ALK5 activity
Method: The inhibition effect of TGFβRI kinase activity in vitro was determined by the following method.
The inhibition effect of the compounds of the present invention on TGFβRI kinase ALK5 activity was determined by the following experimental method:
(§1) TGFβRI kinase assay kit (V4093, Promega) was used to assay enzyme activity. 2 μl of enzyme solution (the final concentration of enzyme in the reaction system was 2 ng/μL) formulated with reaction buffer (40 mM Tris pH 7.5, 20 mM MgCl2, 0.1 mg/ml BSA), 1 μl of a 3-fold gradient dilution of the compounds dissolved in 5% DMSO, and 2 μl of a mixed solution of ATP and TGFβRI substrate peptide (the final concentration of ATP was 50 μM, and the final concentration of substrate was 0.2 μg/μL) were added successively to a 384-well plate (4514, Corning). After reaction at 27° C. for 2.5 hours, 5 μl of ADP-Glo solution in the kit was added to each well, then the plate was placed at 27° C. for 40 minutes. 10 μl of kinase assay reagent was then added to each well, then the plate was placed at 27° C. for 30 minutes. The chemiluminescence signal values were measured with a Victor 3 (PerkinElmer) multi-function microplate reader. The IC50 values of the compounds for enzyme inhibition were calculated using Graphpad prism software based on each concentration of the compound and the corresponding signal value thereof.

[1] = molecular target: recombinant human VEGFR2 enzyme (Homo sapiens (Human), UniProt P35968); assay: Inhibition of VEGFR2 kinase activity (Z'-LYTE Kinase Assay Kit); assay type: biochemical; conditions: ATP 50 μM; read-out: IC50 of inhibition effect on VEGFR2 kinase activity
Method: The inhibition effect of VEGFR2 kinase activity in vitro was determined by the following method.
The inhibition effect of the compounds of the present invention on VEGFR2 kinase activity was determined by the following experimental method:
After reaction at 25° C. for 2 hours, 5 μL of detection reagent was added to each well. […] The IC50 values of the compounds for enzyme inhibition were calculated using Graphpad prism software based on each concentration of the compound and the corresponding signal value thereof.

p38α kinase = p38α kinase (Homo sapiens (Human), UniProt Q16539); assay: Inhibition of p38α kinase activity (p38α kinase assay kit, ADP-Glo); assay type: biochemical; conditions: ATP 50 μM; read-out: IC50 of inhibition effect on p38α kinase activity
Method: The inhibition of p38α kinase activity in vitro was determined by the following method.
The inhibition effect of the compounds of the present invention on p38a kinase activity was determined by the following experimental method:
as §1, with “p38α kinase” for “TGFβRI kinase”, “kit (V9591,” for “kit (V4093,”, “was 0.5” for “was 2”, “and p38” for “and TGFβRI”, “compounds on” for “compounds for”

[2] = system: Smad signaling pathway of TGFβRI; assay: Inhibition of Smad signaling pathway of TGFβRI (3TP-lux luciferase reporter in HepG2 cell); assay type: cell-based; conditions: Homo sapiens; HepG2 cell, 3TP-lux plasmid, 18 hours; read-out: IC50 on the inhibition of Smad signaling pathway of TGFβRI
Method: The inhibition effect of the compounds of the present invention on Smad signaling pathway of TGFβRI was determined by the following in vitro test.
The inhibition effect of the compounds of the present invention on Smad signaling pathway of TGFβRI was determined by the following experimental method:
The seeding density is 2.5×10^4 cells/well. The cells were incubated overnight at 37° C., 5% CO2. Each well was replaced with fresh EMEM medium containing 10% FBS. […] The cells were further incubated for 24 hours at 37° C., 5% CO2. Each well was replaced with 90 μL of EMEM medium containing 0.5% FBS, then the cells were starved for 6 hours. The compounds were formulated as a 20 mM stock solution, which was diluted in gradient to a 400× concentration with 100% DMSO, and further 40-fold diluted with EMEM containing 0.5% FBS. The cell culture plate was taken out, then 10 μl of diluted compound or control (0.25% DMSO) was added to each well respectively. The plate was shaken gently, then incubated for 18 hours in an incubator at 37° C., 5% CO2. Finally, 100 μl of detection reagent ONE-Glo™ Luciferase Assay (E6110, Promega) was added to each well, and the plate was placed in dark at room temperature for 10 minutes. The chemiluminescence signal values were measured with a Victor 3.0 (PerkinElmer). The IC50 values of the compounds were calculated using Graphpad Prism software based on each concentration of the compound and the corresponding signal value thereof.

NIH3T3 cell = assay: Inhibition of NIH3T3 cell proliferation (CellTiter-Glo); assay type: cell-based; conditions: Mus musculus, 72 hours, 0.5% FBS
Method: The inhibition effect of the compounds of the present invention on NIH3T3 cell proliferation was determined by the following in vitro test.
The inhibition effect of the compounds of the present invention on NIH3T3 cell proliferation was determined by the following experimental method:
On a 96-well white plate with transparent bottom (3903, Corning), 100 μL of NIH3T3 cell (GNM6, Cell Bank of Typical Culture Collection Committee of Chinese Academy of Sciences) was seeded in a DMEM medium containing 10% FBS in each well. The seeding density is 2000 cells/well. The cells were incubated overnight at 37° C., 5% CO2. After overnight incubation, each well was replaced with 90 μL of DMEM medium containing 0.5% FBS. 10 μl of a 3-fold gradient dilution of the compounds with DMEM medium containing 0.5% FBS was then added, and the plate was incubated for 72 hours in a cell incubator at 37° C., 5% CO2. Finally, 50 μL of CellTiter-Glo (G7573, Promega) was added to each well. After incubation for 10 minutes at room temperature, the chemiluminescence signal values were measured with a Victor 3 microplate reader (PerkinElmer). The IC50 values of the compounds were calculated using Graphpad Prism software based on each concentration of the compound and the corresponding signal value thereof.

Sequence of p38α kinase (Q16539 whole entry): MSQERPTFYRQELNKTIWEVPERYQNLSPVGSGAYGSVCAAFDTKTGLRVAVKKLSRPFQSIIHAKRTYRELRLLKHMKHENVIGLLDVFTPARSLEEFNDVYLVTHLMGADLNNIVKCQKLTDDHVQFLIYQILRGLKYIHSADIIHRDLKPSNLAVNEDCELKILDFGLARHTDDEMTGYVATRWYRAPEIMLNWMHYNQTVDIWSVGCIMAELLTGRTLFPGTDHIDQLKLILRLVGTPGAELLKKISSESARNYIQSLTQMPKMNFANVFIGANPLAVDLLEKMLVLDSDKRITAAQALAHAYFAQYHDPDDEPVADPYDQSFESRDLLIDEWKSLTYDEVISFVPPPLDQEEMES
Sequence of TGFβRI kinase ALK5 (P36897 34-503): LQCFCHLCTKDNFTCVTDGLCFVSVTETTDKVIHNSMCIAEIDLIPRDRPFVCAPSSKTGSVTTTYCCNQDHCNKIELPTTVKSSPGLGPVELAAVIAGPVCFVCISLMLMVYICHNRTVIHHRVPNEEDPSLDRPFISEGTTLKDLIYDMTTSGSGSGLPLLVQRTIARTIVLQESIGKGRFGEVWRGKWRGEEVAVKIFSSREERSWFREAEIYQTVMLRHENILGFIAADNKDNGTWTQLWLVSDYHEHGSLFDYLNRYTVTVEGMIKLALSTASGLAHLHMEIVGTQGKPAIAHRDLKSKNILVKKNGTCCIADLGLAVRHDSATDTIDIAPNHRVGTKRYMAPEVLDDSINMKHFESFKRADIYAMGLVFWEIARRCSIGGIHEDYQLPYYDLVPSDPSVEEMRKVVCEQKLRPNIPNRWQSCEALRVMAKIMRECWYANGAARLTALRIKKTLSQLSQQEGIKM
Sequence of recombinant human VEGFR2 enzyme (P35968 20-1356): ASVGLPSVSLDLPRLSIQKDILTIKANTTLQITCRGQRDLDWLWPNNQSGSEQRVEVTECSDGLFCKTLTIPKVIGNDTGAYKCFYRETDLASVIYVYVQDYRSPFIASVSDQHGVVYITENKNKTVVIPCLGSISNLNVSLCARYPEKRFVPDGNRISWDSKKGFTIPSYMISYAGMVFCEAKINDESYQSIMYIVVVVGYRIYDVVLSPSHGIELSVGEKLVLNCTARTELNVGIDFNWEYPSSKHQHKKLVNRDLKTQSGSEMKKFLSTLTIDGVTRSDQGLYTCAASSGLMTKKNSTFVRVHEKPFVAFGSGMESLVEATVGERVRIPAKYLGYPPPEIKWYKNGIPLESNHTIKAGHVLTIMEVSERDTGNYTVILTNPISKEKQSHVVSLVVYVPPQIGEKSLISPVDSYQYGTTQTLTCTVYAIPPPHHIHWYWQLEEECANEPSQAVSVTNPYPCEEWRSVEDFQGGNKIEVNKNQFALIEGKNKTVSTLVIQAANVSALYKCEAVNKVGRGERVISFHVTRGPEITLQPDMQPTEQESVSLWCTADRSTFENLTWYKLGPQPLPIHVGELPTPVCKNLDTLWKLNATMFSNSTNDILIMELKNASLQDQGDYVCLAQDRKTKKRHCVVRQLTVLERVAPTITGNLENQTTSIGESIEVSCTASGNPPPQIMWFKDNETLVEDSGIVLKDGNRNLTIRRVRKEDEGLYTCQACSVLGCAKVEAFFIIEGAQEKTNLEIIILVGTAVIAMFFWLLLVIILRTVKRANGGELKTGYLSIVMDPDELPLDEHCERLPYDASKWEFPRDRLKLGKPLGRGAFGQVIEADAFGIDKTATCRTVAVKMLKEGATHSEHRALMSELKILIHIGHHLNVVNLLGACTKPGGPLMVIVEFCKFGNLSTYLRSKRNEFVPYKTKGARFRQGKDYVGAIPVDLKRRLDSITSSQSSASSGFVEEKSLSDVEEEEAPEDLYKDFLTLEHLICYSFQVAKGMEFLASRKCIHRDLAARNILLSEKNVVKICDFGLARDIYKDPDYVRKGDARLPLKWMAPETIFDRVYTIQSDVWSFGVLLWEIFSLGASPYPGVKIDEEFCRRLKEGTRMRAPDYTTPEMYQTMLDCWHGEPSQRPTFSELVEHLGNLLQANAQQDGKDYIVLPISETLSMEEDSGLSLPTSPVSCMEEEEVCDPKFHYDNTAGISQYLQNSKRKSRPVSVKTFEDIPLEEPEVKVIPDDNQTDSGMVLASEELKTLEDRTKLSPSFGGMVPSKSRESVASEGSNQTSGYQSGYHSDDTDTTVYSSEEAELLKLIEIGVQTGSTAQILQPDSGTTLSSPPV

IC50 (TGFβRI kinase ALK5)	IC50 [1]	IC50 (p38α kinase)	IC50 [2]	Compound	IC50 (NIH3T3 cell)
23 nM	928 nM	654 nM	31 nM	Cc1cccc(-c2nc3n(c2-c2ccnc(-c4ccc(S(C)(=O)=O)cc4)c2)[C@@H]2CC[C@H]3C2)n1 [Example 3-2, (5R,8S)-2-(6-Methylpyridin-2-yl)-3-(2-(4-(methylsulfonyl)phenyl)pyridin-4-yl)-5,6,7,8-tetrahydro-5,8-methanoimidazo[1,2-a]pyridine]	
77 nM	> 10000 nM			Cc1cccc(-c2nc3n(c2-c2ccnc(NCCN4CCOCC4)c2)[C@H]2CC[C@@H]3C2)n1 [Example 16-1, 4-((5S,8R)-2-(6-Methylpyridin-2-yl)-5,6,7,8-tetrahydro-5,8-methanoimidazo[1,2-a]pyridin-3-yl)-N-(2-morpholinoethyl)pyridin-2-amine]	
10 nM	2080 nM	1360 nM	18 nM	Cn1cc(-c2cc(-c3c(-c4ccc(F)cn4)nc4n3[C@H]3CC[C@@H]4C3)ccn2)cn1 [Example 40-1, (5S,8R)-2-(5-Fluoropyridin-2-yl)-3-(2-(1-methyl-1H-pyrazol-4-yl)pyridin-4-yl)-5,6,7,8-tetrahydro-5,8-methanoimidazo[1,2-a]pyridine]	42 nM

The next lines start with the compound.

Compound	IC50 (TGFβRI kinase ALK5)	IC50 [1]	IC50 (p38α kinase)	IC50 [2]	IC50 (NIH3T3 cell)
Cc1cccc(-c2nc3n(c2-c2ccnc(-c4ccc(C(N)=O)cc4)c2)C2CCC3C2)n1 (stereo not shown) [Example 4, 4-(4-(2-(6-Methylpyridin-2-yl)-5,6,7,8-tetrahydro-5,8-methanoimidazo[1,2-a]pyridin-3-yl)pyridin-2-yl)benzamide]	29 nM	4060 nM	638 nM	86 nM	
Cc1cccc(-c2nn3c(c2-c2ccc4nccc(C(N)=O)c4c2)C2CCC3CC2)n1 [Example 36, 6-(2-(6-Methylpyridin-2-yl)-4,5,6,7-tetrahydro-4,7-ethanopyrazolo[1,5-a]pyridin-3-yl)quinoline-4-carboxamide]	21 nM	1010 nM	598 nM	18 nM	
CS(=O)(=O)c1ccc(-c2cc(-c3c(-c4ccc(F)cn4)nc4n3[C@H]3CC[C@@H]4C3)ccn2)cc1 [Example 42-1, (5S,8R)-2-(5-Fluoropyridin-2-yl)-3-(2-(4-(methylsulfonyl)phenyl)pyridin-4-yl)-5,6,7,8-tetrahydro-5,8-methanoimidazo[1,2-a]pyridine]		9740 nM	7780 nM	31 nM	
